Values of other authors as cited in patent US6342488B1, “Phosphonorisperidone and sulforisperidone compositions and methods” (priority 1998, dated 2002).

Settings: condition associated with torsades de pointes

SMILES	prolongation of QT interval
Cc1nc2n(c(=O)c1CCN1CCC(c3noc4cc(F)ccc34)CC1)CCCC2O (centres unmarked) [hydroxyrisperidone, 9-hydroxyrisperidone]	implicated in a prolongation of QT interval
Cc1nc2n(c(=O)c1CCN1CCC(c3noc4cc(F)ccc34)CC1)CCCC2 [risperidone, Risperidone]	implicated in a prolongation of QT interval
